According to US11858922B2, “Sulfonylureas and related compounds and use of same” (The University of Queensland, priority 2016, dated 2024):

Molecular target: T1, NLRP3 inflammasome (Homo sapiens, UniProt Q96P20)
T1 construct: endogenous in cells; host or cells: HMDM (human monocyte-derived macrophages from buffy coat blood)
T1 sequence (Q96P20 whole entry): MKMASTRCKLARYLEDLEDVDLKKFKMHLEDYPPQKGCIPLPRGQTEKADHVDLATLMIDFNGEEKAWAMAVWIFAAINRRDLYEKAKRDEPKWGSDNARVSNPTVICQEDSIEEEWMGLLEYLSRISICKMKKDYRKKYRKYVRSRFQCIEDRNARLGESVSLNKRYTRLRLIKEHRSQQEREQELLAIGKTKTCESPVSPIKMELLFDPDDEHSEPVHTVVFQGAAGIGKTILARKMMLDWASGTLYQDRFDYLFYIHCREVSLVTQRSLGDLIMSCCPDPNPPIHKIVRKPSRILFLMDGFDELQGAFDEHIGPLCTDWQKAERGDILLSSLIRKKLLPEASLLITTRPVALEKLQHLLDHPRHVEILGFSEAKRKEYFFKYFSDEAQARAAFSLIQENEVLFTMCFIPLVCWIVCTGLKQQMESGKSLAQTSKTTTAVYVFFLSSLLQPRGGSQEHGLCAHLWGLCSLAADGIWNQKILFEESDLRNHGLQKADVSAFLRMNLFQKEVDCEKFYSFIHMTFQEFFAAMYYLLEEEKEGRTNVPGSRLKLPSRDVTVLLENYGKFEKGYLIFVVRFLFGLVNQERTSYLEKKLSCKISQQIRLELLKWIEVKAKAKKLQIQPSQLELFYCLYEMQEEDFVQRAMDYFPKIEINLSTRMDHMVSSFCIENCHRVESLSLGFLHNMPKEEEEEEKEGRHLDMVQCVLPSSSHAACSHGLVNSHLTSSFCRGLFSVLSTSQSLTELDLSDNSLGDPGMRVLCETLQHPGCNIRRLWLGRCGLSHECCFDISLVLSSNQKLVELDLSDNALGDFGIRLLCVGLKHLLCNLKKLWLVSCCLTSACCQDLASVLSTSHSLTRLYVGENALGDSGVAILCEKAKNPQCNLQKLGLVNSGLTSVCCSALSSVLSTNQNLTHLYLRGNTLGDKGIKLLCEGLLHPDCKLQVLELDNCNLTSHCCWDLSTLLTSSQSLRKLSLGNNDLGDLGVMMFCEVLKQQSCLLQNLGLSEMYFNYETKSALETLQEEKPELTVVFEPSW
Test: Inhibition of IL-1β release, cell based assay using HMDM (NLRP3 inflammasome activation assay)
Settings: not given
Method: The following assays can be used to determine inhibitory activity of test compounds on the NLRP3 inflammasome using common stimuli such as adenosine triphosphate, nigericin, LeuLeu-OMe or monosodium urate crystals (MSU).
To generate HMDM (Human Monocyte Derived Macrophages), human monocytes are isolated from buffy coat blood using Ficoll-Plaque Plus (GE Healthcare) and density centrifugation. CD14^+ cell selection is performed using MACS magnetic beads (Miltenyl Biotec). Isolated CD14^+ monocytes are differentiated in culture for 7 days with 10 ng/ml human CSF-1 (Miltenyl Biotec) in Iscove's modified Dulbecco's medium (IMDM) containing L-glutamine supplemented with 10% FBS and 1% penicillin/streptomycin (Life Technologies) as described by Croker et al 2013 Immunol Cell Biol 91:625. Stably transfected ASC-cerulean macrophages as described by Hett et al. (Nat. Chem. Biol., 9, 398-405, 2013) are cultured in DMEM supplemented with 10% FCS and 1% P/S.
HMDM are seeded at 1×10^5/ml. […]
For ELISA and cell death assays cells are seeded in 96 well plates. Supernatants are removed and analysed using ELISA kits according to the manufacturer's instructions (DuoSet® R&D Systems, ReadySetGo!® eBioscience, BD OptEIA™, or Perkin Elmer AlphaLISA®). Cell death is assessed by measurement of LDH release relative to a 100% cell lysis control using the CytoTox96® non-radioactive cytotoxicity assay (Promega).
Molecule `CN1CCN(S(=O)(=O)NC(=O)Nc2c3c(cc4c2CCC4)CCC3)CC1` [Example 2, N-((1,2,3,5,6,7-hexahydro-s-indacen-4-yl)carbamoyl)-4-methylpiperazine-1-sulfonamide] has an IC50 of less than 1 µM.
With `CC(C)n1ccc(S(=O)(=O)NC(=O)Nn2c3ccccc3c3ccccc32)n1` [Example 4, N-((9H-carbazol-9-yl)carbamoyl)-1-isopropyl-1H-pyrazole-3-sulfonamide] the IC50 was less than 10 µM.

Molecular target: T2, NLRP3 (Homo sapiens, UniProt Q96P20)
T2 construct: Seed THP-1 cells (25,000 cells/well) containing 1.0 μg/ml LPS; host or cells: THP-1 cells
T2 sequence (Q96P20 whole entry): as above
Test: THP-1 cells pyroptosis assay
Type: cell-based
Settings: LPS 1.0 μg/ml, nigericin 5 μM, resazurin readout
Excerpt: It is well established that the activation of NLRP3 leads to cell pyroptosis and this feature plays an important part in the manifestation of the clinical disease (Yan-gang Liu et al., Cell Death & Disease, 2017, 8(2), e2579; Alexander Wree et al., Hepatology, 2014, 59(3), 898-910; Alex Baldwin et al., Journal of Medicinal Chemistry, 2016, 59(5), 1691-1710; Ema Ozaki et al., Journal of Inflammation Research, 2015, 8, 15-27; Zhen Xie & Gang Zhao, Neuroimmunology Neuroinflammation, 2014, 1(2), 60-65; Mattia Cocco et al., Journal of Medicinal Chemistry, 2014, 57(24), 10366-10382; T. Satoh et al., Cell Death & Disease, 2013, 4, e644). Therefore, it is anticipated that inhibitors of NLRP3 will block pyroptosis, as well as the release of pro-inflammatory cytokines (e.g. IL-1β) from the cell.
THP-1 cells (ATCC #TIB-202) were grown in RPMI containing L-glutamine (Gibco #11835) supplemented with 1 mM sodium pyruvate (Sigma #S8636) and penicillin (100 units/ml)/streptomycin (0.1 mg/ml) (Sigma #P4333) in 10% Fetal Bovine Serum (FBS) (Sigma #F0804). The cells were routinely passaged and grown to confluency (˜10^6 cells/ml). On the day of the experiment, THP-1 cells were harvested and resuspended into RPMI medium (without FBS). The cells were then counted and viability (>90%) checked by Trypan blue (Sigma #T8154). Appropriate dilutions were made to give a concentration of 625,000 cells/ml. To this diluted cell solution was added LPS (Sigma #L4524) to give a 1 μg/ml Final Assay Concentration (FAC). 40 μl of the final preparation was aliquoted into each well of a 96-well plate. The plate thus prepared was used for compound screening.
The following method step-by-step assay was followed for compound screening. • 1. Seed THP-1 cells (25,000 cells/well) containing 1.0 μg/ml LPS in 40 μl of RPMI medium (without FBS) in 96-well, black walled, clear bottom cell culture plates coated with poly-D-lysine (VWR #734-0317) • 2. Add 5 μl compound (8 points half-log dilution, with 10 μM top dose) or vehicle (DMSO 0.1% FAC) to the appropriate wells • 3. Incubate for 3 hrs at 37° C. in 5% CO2 • 4. Add 5 μl nigericin (Sigma #N7143) (FAC 5 μM) to all wells • 5. Incubate for 1 hr at 37° C. and 5% CO2 • 6. At the end of the incubation period, spin plates at 300×g for 3 mins and remove supernatant • 7. Then add 50 μl of resazurin (Sigma #R7017) (FAC 100 μM resazurin in RPMI medium without FBS) and incubate plates for a further 1-1.5 h at 37° C. and 5% CO2 • 8. Plates were read in an Envision reader at Ex 560 nm and Em 590 nm • 9. IC50 data is fitted to a non-linear regression equation (log inhibitor vs response-variable slope 4-parameters) 96-Well Plate Map
Molecule `O=C(Nc1c2c(cc3c1CCC3)CCC2)NS(=O)(=O)NCCCc1ccccc1` [Example 25] has an IC50 of less than 10 µM.
In the case of `COc1cc(C)c(NS(=O)(=O)NC(=O)Nc2c3c(cc4c2CCC4)CCC3)cn1` [Example 35], the IC50 is reported as less than 1 µM.
For `O=C(Nc1c2c(cc3c1CCC3)CCC2)NS(=O)(=O)Nc1cccc2c1CCC2` [Example 37], the IC50 was less than 10 µM.
`O=C(Nc1c2c(cc3c1CCC3)CCC2)NS(=O)(=O)Nc1ccc2[nH]ccc2c1` [Example 43, 3-(1,2,3,5,6,7-Hexahydro-s-indacen-4-yl)-1-[(1H-indol-5-yl)sulfamoyl]urea] gave an IC50 of less than 1 µM.
`O=C(Nc1c2c(cc3c1CCC3)CCC2)NS(=O)(=O)NCc1c(F)cc(F)cc1F` [Example 11] showed an IC50 of less than 10 µM.
`Cc1ccnc(C)c1NS(=O)(=O)NC(=O)Nc1c2c(cc3c1CCC3)CCC2` [Example 39] gave an IC50 of less than 10 µM.
For `O=C(Nc1c2c(cc3c1CCC3)CCC2)NS(=O)(=O)NCc1ccncc1` [Example 30], the IC50 was less than 50 µM.
`Cc1ccc(OCCNS(=O)(=O)NC(=O)Nc2c3c(cc4c2CCC4)CCC3)cc1` [Example 24] showed an IC50 of less than 10 µM.
With `CN(Cc1csc(-c2ccccc2)n1)S(=O)(=O)NC(=O)Nc1c2c(cc3c1CCC3)CCC2` [Example 20] the IC50 was less than 10 µM.
`O=C(Nc1c2c(cc3c1CCC3)CCC2)NS(=O)(=O)NCCOc1ccccc1Cl` [Example 5] gave an IC50 of less than 10 µM.
`CN(Cc1ccncc1)S(=O)(=O)NC(=O)Nc1c2c(cc3c1CCC3)CCC2` [Example 29] showed an IC50 of less than 10 µM.
Work on `O=C(Nc1c2c(cc3c1CCC3)CCC2)NS(=O)(=O)N1CCN(CCc2cccs2)CC1` [Example 13] yielded an IC50 of less than 10 µM.
`O=C(Nc1c2c(cc3c1CCC3)CCC2)NS(=O)(=O)N(Cc1ccccc1)Cc1nccs1` [Example 19] gave an IC50 of less than 1 µM.
Molecule `CCN(C)C1(CNS(=O)(=O)NC(=O)Nc2c3c(cc4c2CCC4)CCC3)CCCCC1` [Example 12] has an IC50 of less than 10 µM.
Work on `O=C(Nc1c2c(cc3c1CCC3)CCC2)NS(=O)(=O)NCCc1nc(-c2cccnc2)no1` [Example 21] yielded an IC50 of less than 10 µM.
Molecule `CN(C)CCN(Cc1ccsc1)S(=O)(=O)NC(=O)Nc1c2c(cc3c1CCC3)CCC2` [Example 18] has an IC50 of less than 10 µM.
`Cc1nccn1-c1ccc(NS(=O)(=O)NC(=O)Nc2c3c(cc4c2CCC4)CCC3)cc1` [Example 27] showed an IC50 of less than 10 µM.
Work on `Cn1ncc2ccc(NS(=O)(=O)NC(=O)Nc3c4c(cc5c3CCC5)CCC4)cc21` [Example 42, 1-(1,2,3,5,6,7-Hexahydro-s-indacen-4-yl)-3-[(1-methyl-1H-indazol-6-yl)sulfamoyl]urea] yielded an IC50 of less than 1 µM.
`O=C(Nc1c2c(cc3c1CCC3)CCC2)NS(=O)(=O)NCc1ccco1` [Example 14] showed an IC50 of less than 10 µM.
For `CC(=O)c1cc2c(cc1NS(=O)(=O)NC(=O)Nc1c3c(cc4c1CCC4)CCC3)OCO2` [Example 36], the IC50 was less than 10 µM.
Work on `CN(c1ccccc1)S(=O)(=O)NC(=O)Nc1c2c(cc3c1CCC3)CCC2` [Example 31] yielded an IC50 of less than 10 µM.
Molecule `O=C(Nc1c2c(cc3c1CCC3)CCC2)NS(=O)(=O)NCCN1CCc2ccccc21` [Example 40] has an IC50 of less than 10 µM.
Molecule `O=C(Nc1c2c(cc3c1CCC3)CCC2)NS(=O)(=O)NCc1cccs1` [Example 23] has an IC50 of less than 10 µM.
`CN(Cc1ccc(F)cc1)S(=O)(=O)NC(=O)Nc1c2c(cc3c1CCC3)CCC2` [Example 32] gave an IC50 of less than 10 µM.
In the case of `CS(=O)(=O)c1cccc(CNS(=O)(=O)NC(=O)Nc2c3c(cc4c2CCC4)CCC3)c1` [Example 7], the IC50 is reported as less than 10 µM.
With `O=C(Nc1c2c(cc3c1CCC3)CCC2)NS(=O)(=O)NCc1ccc(Cl)cc1F` [Example 6] the IC50 was less than 10 µM.
For `O=C(Nc1c2c(cc3c1CCC3)CCC2)NS(=O)(=O)NCCc1nccs1` [Example 15], the IC50 was less than 10 µM.
`CCn1c(=O)n(CC)c2cc(NS(=O)(=O)NC(=O)Nc3c4c(cc5c3CCC5)CCC4)c(C)cc21` [Example 34] gave an IC50 of less than 10 µM.
`O=C(Nc1c2c(cc3c1CCC3)CCC2)NS(=O)(=O)N1CCc2ccccc21` [Example 28] gave an IC50 of less than 10 µM.
With `Cc1ccc(NS(=O)(=O)NC(=O)Nc2c3c(cc4c2CCC4)CCC3)cc1C#N` [Example 33] the IC50 was less than 10 µM.
For `Cc1ccccc1OCCNS(=O)(=O)NC(=O)Nc1c2c(cc3c1CCC3)CCC2` [Example 26], the IC50 was less than 10 µM.
Molecule `O=C(Nc1c2c(cc3c1CCC3)CCC2)NS(=O)(=O)N(CCN1CCOCC1)Cc1ccco1` [Example 17] has an IC50 of less than 50 µM.

System: not listed separately
Test: Isothermal titration calorimetry (ITC), Ca^2+ binding
Settings: MCC950 sodium salt
For `CC(C)(O)c1coc(S(=O)(=O)NC(=O)Nc2c3c(cc4c2CCC4)CCC3)c1` [MCC950], the “binding to Ca^2+ (ITC, FIG. 1)” value was “no binding”.

System: not given
Test: not given
Settings: mouse; cited from earlier work
For `CC(C)(O)c1coc(S(=O)(=O)NC(=O)Nc2c3c(cc4c2CCC4)CCC3)c1` [MCC950], the half-life is given as 3.2 h.

Molecular target: not listed separately
Test: Isothermal titration calorimetry (ITC), copper complexation of MCC950
Type: binding
Settings: ITC, CuCl2 titrated into 0.4 mM MCC950Na in water, 25° C.
Method: Complex formation between the sodium form of MCC950 and copper chloride was tested and detected by using isothermal titration calorimetry (ITC). MCC950 (also known as CRID3) is a sulphonylurea having the formula: […]
An autoITC 200 (GE life sciences) was used to measure the change in heat induced by Cu^2+-MCC950 interactions and data analysed using the MicroCal Origin version 7.0 software package adapted for auto-ITC data analysis.
Copper chloride (5 or 2.5 mM of CuCl2) dissolved in water (miliQ water; Elga) was titrated into a cell containing 0.4 mM MCC950Na also dissolved in water. The titration consisted of 19×2 μL injections at 25° C. As a control EDTA was used, in free acid form or as a sodium di-salt, at a concentration of 0.4 mM. Experiments were replicated three times and results were averaged. Thermograms and binding isotherms were used to determine the enthalpy (ΔH), binding constants (K), stoichiometry (N), and entropy (TΔS) using a single-site binding model. The change in standard Gibbs free energy (ΔG) was calculated using the Gibbs-Helmholz thermodynamic equation: ΔG=−RTInK, where R is the ideal gas constant (1.985 cal mol^−1K^−1) and T is the temperature (298 K).
For `CC(C)(O)c1coc(S(=O)(=O)NC(=O)Nc2c3c(cc4c2CCC4)CCC3)c1` [MCC950], the “K (binding constant)” value was 5.69 ± 0.3 10^4 M^−1.

Same assay, conditions: MCC950 sodium salt
With `CC(C)(O)c1coc(S(=O)(=O)NC(=O)Nc2c3c(cc4c2CCC4)CCC3)c1` [MCC950] the “binding to Cu^2+ (ITC, FIG. 1)” value was “significant binding”.
